Read-outs that look alike come from different tables or passages of the source. Non-standard residues stand in square brackets, D forms with d. Residues, ends and D or L forms follow the SMILES beside them. 1Nal = N[C@@H](Cc1cccc2ccccc12)C(=O)O; β3hI = CC[C@H](C)[C@H](N)CC(=O)O; β3hR = N=C(N)NCCC[C@H](N)CC(=O)O; β3hK = NCCCC[C@H](N)CC(=O)O; hSer = N[C@@H](CCO)C(=O)O; Nle = CCCC[C@H](N)C(=O)O; Aib = CC(C)(N)C(=O)O

One test deals with T1, human PTH-2 receptor (Homo sapiens, UniProt P49190).
T1 construct: expressed in transfected cells
Description: Luciferase-based transcriptional reporter gene assay for selectivity. Format: cell-based. The method, boiled down:
(§1)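 HEK-293 cells transiently transfected with SV40-driven human PTH-1 receptor and CRE-luciferase reporter, exposed to serial compound dilutions for 4-5 h, then lysed for luciferase readout; efficacy and EC50 by non-linear regression, PTH (1-34) as internal control, n≥3. Selectivity measured in analogous human PTH-2 receptor luciferase reporter assays.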
A general note: Reporter assays use an easily measured gene product as a stand-in for the process of interest.

A further test deals with T2, human PTH-1 receptor (Homo sapiens, UniProt Q03431).
T2 construct: expressed in transfected cells; host or cells: HEK-293
T2 sequence (Q03431 27-593): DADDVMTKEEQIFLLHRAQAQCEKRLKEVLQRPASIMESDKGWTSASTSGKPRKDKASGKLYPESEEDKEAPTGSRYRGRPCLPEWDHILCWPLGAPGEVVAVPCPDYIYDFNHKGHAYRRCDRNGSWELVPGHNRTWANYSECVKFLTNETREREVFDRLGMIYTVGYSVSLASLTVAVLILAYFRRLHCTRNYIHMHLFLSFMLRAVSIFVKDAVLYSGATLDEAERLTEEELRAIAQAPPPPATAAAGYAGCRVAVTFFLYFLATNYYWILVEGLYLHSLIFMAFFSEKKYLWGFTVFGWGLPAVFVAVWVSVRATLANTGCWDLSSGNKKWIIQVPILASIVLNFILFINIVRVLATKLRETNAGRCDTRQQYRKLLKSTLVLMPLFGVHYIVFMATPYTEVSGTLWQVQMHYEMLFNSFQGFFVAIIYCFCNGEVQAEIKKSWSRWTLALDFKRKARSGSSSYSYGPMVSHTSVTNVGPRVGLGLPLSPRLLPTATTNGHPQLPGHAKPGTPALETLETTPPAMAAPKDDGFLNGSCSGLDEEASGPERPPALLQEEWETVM
Kind of test: Reporter gene assay (CRE-luciferase) for agonist activity in transiently transfected HEK-293 cells. Format: cell-based. To be noted: for hPTHR-2/hPTHR-1: selectivity for hPTH-1 receptor over hPTH-2 receptor. The method, boiled down: as §1

T1 sequence (P49190 25-550): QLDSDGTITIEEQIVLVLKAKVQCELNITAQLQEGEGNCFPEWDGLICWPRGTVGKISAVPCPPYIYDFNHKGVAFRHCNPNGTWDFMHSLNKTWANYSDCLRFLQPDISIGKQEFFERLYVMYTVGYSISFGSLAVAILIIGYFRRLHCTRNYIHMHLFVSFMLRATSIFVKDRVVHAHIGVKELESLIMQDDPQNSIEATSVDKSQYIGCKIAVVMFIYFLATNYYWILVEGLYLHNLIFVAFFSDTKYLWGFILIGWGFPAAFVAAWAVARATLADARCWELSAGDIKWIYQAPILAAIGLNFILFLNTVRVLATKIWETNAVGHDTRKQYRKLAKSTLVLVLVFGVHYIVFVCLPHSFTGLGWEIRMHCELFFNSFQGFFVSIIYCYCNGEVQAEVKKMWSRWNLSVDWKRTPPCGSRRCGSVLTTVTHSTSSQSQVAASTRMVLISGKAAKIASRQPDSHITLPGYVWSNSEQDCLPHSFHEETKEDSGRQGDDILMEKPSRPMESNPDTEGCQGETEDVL

Take `CCCC[C@H](NC(=O)[C@H](CC(C)C)NC(=O)[C@H](CCC(N)=O)NC(=O)[C@@H](NC(=O)[C@H](CCC(=O)O)NC(=O)[C@H](CO)NC(=O)[C@@H](NC(=O)[C@@H](N)CO)C(C)C)[C@@H](C)CC)C(=O)N[C@@H](Cc1c[nH]cn1)C(=O)N[C@@H](CC(N)=O)C(=O)N[C@@H](CC(C)C)C(=O)NCC(=O)N[C@@H](CCCCN)C(=O)N[C@@H](Cc1c[nH]cn1)C(=O)N[C@@H](CC(C)C)C(=O)N[C@@H](CCCCN)C(=O)N[C@@H](CO)C(=O)N[C@H](CC(=O)N[C@@H](CCC(=O)O)C(=O)N[C@@H](CCCNC(=N)N)C(=O)N[C@H](C(=O)N[C@@H](CCC(=O)O)C(=O)N[C@@H](Cc1cccc2ccccc12)C(=O)N[C@@H](CC(C)C)C(=O)N[C@@H](CCCNC(=N)N)C(=O)N[C@@H](CCCCN)C(=O)N[C@@H](CC(C)C)C(=O)N[C@@H](CC(C)C)C(=O)N[C@@H](CCC(N)=O)C(=O)N[C@@H](CCCNC(=N)N)C(=O)N[C@H](C(=O)N[C@@H](Cc1c[nH]cn1)C(=O)N[C@@H](CCC(=O)O)C(=O)N[C@@H](Cc1ccccc1)C(N)=O)C(C)C)C(C)C)[C@@H](C)CC` [SEQ ID NO: 41, [Nle^8, Lys^16, β-hIle^18,1-Nal^23, Leu^27, Arg^30, Glu^33] hPTH (1-34)-NH2] (H-SVSEIQL[Nle]HNLGKHLKS[β3hI]ERVE[1Nal]LRKLLQRVHEF-NH2): the figures for the EC50 on human PTH-2 receptor and at human PTH-1 receptor were 14 nM and 0.09 nM, respectively. In addition, on human PTH-1 receptor (Table 3, ratio of EC50 values), the hPTHR-2/hPTHR-1 was 157.

Turning to `CCCC[C@H](NC(=O)[C@H](CC(C)C)NC(=O)[C@H](CCC(N)=O)NC(=O)[C@@H](NC(=O)[C@H](CCC(=O)O)NC(=O)[C@H](CO)NC(=O)[C@@H](NC(=O)C(C)(C)N)C(C)C)[C@@H](C)CC)C(=O)N[C@@H](Cc1c[nH]cn1)C(=O)N[C@@H](CC(N)=O)C(=O)N[C@@H](CC(C)C)C(=O)NCC(=O)N[C@@H](CCCCN)C(=O)N[C@@H](Cc1c[nH]cn1)C(=O)N[C@@H](CC(C)C)C(=O)N[C@@H](CC(N)=O)C(=O)N[C@@H](CO)C(=O)N[C@@H](CCCNC(=N)N)CC(=O)N[C@@H](CCC(=O)O)C(=O)N[C@@H](CCCNC(=N)N)C(=O)N[C@H](C(=O)N[C@@H](CCC(=O)O)C(=O)N[C@@H](Cc1cccc2ccccc12)C(=O)N[C@@H](CC(C)C)C(=O)N[C@@H](CCCNC(=N)N)C(=O)N[C@@H](CCCCN)C(=O)N[C@@H](CC(C)C)C(=O)N[C@@H](CC(C)C)C(=O)N[C@@H](CCC(N)=O)C(=O)N[C@@H](CC(=O)O)C(=O)N[C@H](C(=O)N[C@@H](Cc1c[nH]cn1)C(=O)N[C@@H](CC(N)=O)C(=O)N[C@@H](Cc1ccccc1)C(N)=O)C(C)C)C(C)C` [SEQ ID NO: 43, [Aib^1, Nle^8, β-hArg^18,1-Nal^23, Leu^27] hPTH (1-34)-NH2] (H-[Aib]VSEIQL[Nle]HNLGKHLNS[β3hR]ERVE[1Nal]LRKLLQDVHNF-NH2), the EC50 amounted to 16 nM on human PTH-2 receptor and 0.05 nM at human PTH-1 receptor. In addition, the hPTHR-2/hPTHR-1 at human PTH-1 receptor (Table 3, ratio of EC50 values) is 312. The “Selectivity hPTHR-2/hPTHR-1” value on human PTH-1 receptor (Table 4 comparison data, ratio of EC50 values) is reported as 312.

`CCCC[C@H](NC(=O)[C@H](CC(C)C)NC(=O)[C@H](CCC(N)=O)NC(=O)[C@@H](NC(=O)[C@H](CCC(=O)O)NC(=O)[C@H](CO)NC(=O)[C@@H](NC(=O)[C@@H](N)CO)C(C)C)[C@@H](C)CC)C(=O)N[C@@H](Cc1c[nH]cn1)C(=O)N[C@@H](CO)C(=O)N[C@@H](CC(C)C)C(=O)NCC(=O)N[C@@H](CCCCN)C(=O)N[C@@H](Cc1c[nH]cn1)C(=O)N[C@@H](CC(C)C)C(=O)N[C@@H](CCCCN)C(=O)N[C@@H](CO)C(=O)N[C@H](CC(=O)N[C@@H](CCC(=O)O)C(=O)N[C@@H](CCCNC(=N)N)C(=O)N[C@H](C(=O)N[C@@H](CCC(=O)O)C(=O)N[C@@H](Cc1cccc2ccccc12)C(=O)N[C@@H](CC(C)C)C(=O)N[C@@H](CCCNC(=N)N)C(=O)N[C@@H](CCCCN)C(=O)N[C@@H](CC(C)C)C(=O)N[C@@H](CC(C)C)C(=O)N[C@@H](CCC(N)=O)C(=O)N[C@@H](CCCNC(=N)N)C(=O)N[C@H](C(=O)N[C@@H](Cc1c[nH]cn1)C(=O)N[C@@H](CCC(=O)O)C(=O)N[C@@H](CCC(=O)O)C(N)=O)C(C)C)C(C)C)[C@@H](C)CC` [SEQ ID NO: 44, [Nle^8, Ser^10, Lys^16, β-hIle^18,1-Nal^23, Leu^27, Arg^30, Glu^33, Glu^34] hPTH (1-34)-NH2] (H-SVSEIQL[Nle]HSLGKHLKS[β3hI]ERVE[1Nal]LRKLLQRVHEE-NH2): the EC50 at human PTH-2 receptor was found to be 6 nM; at human PTH-1 receptor, 0.04 nM. In addition, at human PTH-1 receptor (Table 3, ratio of EC50 values), the hPTHR-2/hPTHR-1 was 154.

For `CCCC[C@H](NC(=O)[C@H](CC(C)C)NC(=O)[C@H](CCC(N)=O)NC(=O)[C@@H](NC(=O)[C@H](CCC(=O)O)NC(=O)[C@H](CO)NC(=O)[C@@H](NC(=O)C(C)(C)N)C(C)C)[C@@H](C)CC)C(=O)N[C@@H](Cc1c[nH]cn1)C(=O)N[C@@H](CO)C(=O)N[C@@H](CC(C)C)C(=O)NCC(=O)N[C@@H](CCCCN)C(=O)N[C@@H](Cc1c[nH]cn1)C(=O)N[C@@H](CC(C)C)C(=O)N[C@@H](CCCCN)C(=O)N[C@@H](CO)C(=O)N[C@H](CC(=O)N[C@@H](CCC(=O)O)C(=O)N[C@@H](CCCNC(=N)N)C(=O)N[C@H](C(=O)N[C@@H](CCC(=O)O)C(=O)N[C@@H](Cc1cccc2ccccc12)C(=O)N[C@@H](CC(C)C)C(=O)N[C@@H](CCCNC(=N)N)C(=O)N[C@@H](CCCCN)C(=O)N[C@@H](CC(C)C)C(=O)N[C@@H](CC(C)C)C(=O)N[C@@H](CCC(N)=O)C(=O)N[C@@H](CCCNC(=N)N)C(=O)N[C@H](C(N)=O)C(C)C)C(C)C)[C@@H](C)CC` [SEQ ID NO: 45, [Aib^1, Nle^8, Ser^10, Lys^16, β-hIle^18,1-Nal^23, Leu^27, Arg^30] hPTH (1-31)-NH2] (H-[Aib]VSEIQL[Nle]HSLGKHLKS[β3hI]ERVE[1Nal]LRKLLQRV-NH2), the figures for the EC50 at human PTH-2 receptor and on human PTH-1 receptor were 6 nM and 0.09 nM, respectively. Further, the hPTHR-2/hPTHR-1 on human PTH-1 receptor (Table 3, ratio of EC50 values) stood at 72.

In the case of `CCCC[C@H](NC(=O)[C@H](CC(C)C)NC(=O)[C@H](CCC(N)=O)NC(=O)[C@@H](NC(=O)[C@H](CCC(=O)O)NC(=O)[C@H](CO)NC(=O)[C@@H](NC(=O)C(C)(C)N)C(C)C)[C@@H](C)CC)C(=O)N[C@@H](Cc1c[nH]cn1)C(=O)N[C@@H](CC(N)=O)C(=O)N[C@@H](CC(C)C)C(=O)NCC(=O)N[C@@H](CCCCN)C(=O)N[C@@H](Cc1c[nH]cn1)C(=O)N[C@@H](CC(C)C)C(=O)N[C@@H](CC(N)=O)C(=O)N[C@@H](CO)C(=O)N[C@@H](CCOC)C(=O)N[C@@H](CCCCN)CC(=O)N[C@@H](CCCNC(=N)N)C(=O)N[C@H](C(=O)N[C@@H](CCC(=O)O)C(=O)N[C@@H](Cc1cccc2ccccc12)C(=O)N[C@@H](CC(C)C)C(=O)N[C@@H](CCCNC(=N)N)C(=O)N[C@@H](CCCCN)C(=O)N[C@@H](CC(C)C)C(=O)N[C@@H](CC(C)C)C(=O)N[C@@H](CCC(N)=O)C(=O)N[C@@H](CC(=O)O)C(=O)N[C@H](C(=O)N[C@@H](Cc1c[nH]cn1)C(=O)N[C@@H](CC(N)=O)C(=O)N[C@@H](Cc1ccccc1)C(N)=O)C(C)C)C(C)C` [SEQ ID NO: 47, [Aib^1, Nle^8, hSer(OMe)^18, β-hLys^19,1-Nal^23, Leu^27] hPTH (1-$$4)-NH2] (H-[Aib]VSEIQL[Nle]HNLGKHLNS[hSer](Me)[β3hK]RVE[1Nal]LRKLLQDVHNF-NH2), the EC50 on human PTH-2 receptor (Table 3, luciferase reporter gene assay, read-out: hPTHR-2 EC50) was 3 nM; on human PTH-1 receptor (Table 3, HEK-293 cells, CRE-luciferase, 4-5 hours exposure, read-out: hPTHR-1 EC50) it was 0.05 nM. On human PTH-1 receptor (Table 3, ratio of EC50 values), the hPTHR-2/hPTHR-1 was found to be 51.

Consider `CCCC[C@H](NC(=O)[C@H](CC(C)C)NC(=O)[C@H](CCC(N)=O)NC(=O)[C@@H](NC(=O)[C@H](CCC(=O)O)NC(=O)[C@H](CO)NC(=O)[C@@H](NC(=O)[C@@H](N)CO)C(C)C)[C@@H](C)CC)C(=O)N[C@@H](Cc1c[nH]cn1)C(=O)N[C@@H](CO)C(=O)N[C@@H](CC(C)C)C(=O)NCC(=O)N[C@@H](CCCCN)C(=O)N[C@@H](Cc1c[nH]cn1)C(=O)N[C@@H](CC(C)C)C(=O)N[C@@H](CCCCN)C(=O)N[C@@H](CO)C(=O)N[C@H](CC(=O)N[C@@H](CCC(=O)O)C(=O)N[C@@H](CCCNC(=N)N)C(=O)N[C@H](C(=O)N[C@@H](CCC(=O)O)C(=O)N[C@@H](Cc1cccc2ccccc12)C(=O)N[C@@H](CC(C)C)C(=O)N[C@@H](CCCNC(=N)N)C(=O)N[C@@H](CCCCN)C(=O)N[C@@H](CC(C)C)C(=O)N[C@@H](CC(C)C)C(=O)N[C@@H](CCC(N)=O)C(=O)N[C@@H](CCCNC(=N)N)C(=O)N[C@H](C(N)=O)C(C)C)C(C)C)[C@@H](C)CC` [SEQ ID NO: 49, [Nle^8, Ser^10, Lys^16, β-hIle^18,1-Nal^23, Leu^27, Arg^30] hPTH (1-31)-NH2] (H-SVSEIQL[Nle]HSLGKHLKS[β3hI]ERVE[1Nal]LRKLLQRV-NH2), for which the values for the EC50 on human PTH-2 receptor and at human PTH-1 receptor were 7 nM and 0.08 nM, respectively. In addition, at human PTH-1 receptor (Table 3, ratio of EC50 values), the hPTHR-2/hPTHR-1 amounted to 87.

Usually EC50 stands for the concentration that produces a half-maximal response.

Source of the values: patent US20110195900A1, “PEPTIDIC PTH RECEPTOR AGONISTS” (FERRING B.V., priority 2008, published 2011).
